These are literature values, as cited in patent US12465047B2, “Preparation method for L-glufosinate-ammonium powder” (ZHEJIANG UNIVERSITY OF TECHNOLOGY, priority 2020, dated 2025).

The conditions of this series: stated as the reason for adjusting pH to 2-2.5 in step (4).

With `CP(=O)(O)CC[C@H](N)C(=O)O.N` [L-glufosinate ammonium], the isoelectric point is 2.66 pH.
